Data set [1] is described as follows: Physico-chemical characteristics of salt candidates: solubility in water, pH of aqueous suspension/solution, form post water maturation.
Method: The physico-chemical characteristics of the salt candidates were determined.
Data set [2] is described as follows: RPL554 content and content uniformity of 1% w/w lactose powder blends. The data set is classed as physicochemical. The conditions noted are these: for Measured Blend Content (% Theoretical): 1% w/w RPL554 variant: lactose powder blend, expressed as RPL554 base; for **Adjusted RPL554 Content per capsule: per 20 mg capsule of 1% w/w lactose blend, adjusted for measured blend content (% theoretical), as RPL554 base. In short, it runs like this: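 RPL554 free base or salt was sieved (38 μm) with some lactose, mortar-mixed with the rest, and Turbula-blended for 10 min at 46 rpm to give 1% w/w blends. For uniformity, ~20 mg samples from each blend were diluted to 10 mL, sonicated for 3 min and assayed by HPLC.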

Data set [3] is described as follows: Aerosol performance of DPI formulations (Cyclohaler, NGI). The following applies: for †Measured Mass of 1% w/w Blend Delivered per capsule / ††RPL554 Emitted (μg) per capsule (B): Cyclohaler; for †Measured Mass of 1% w/w Blend Delivered per capsule: 5 capsules containing 20 mg powder blend, mass from weight change of capsule-loaded device; for ††RPL554 Emitted (μg) per capsule (B): NGI, mass determined from HPLC analysis of recovered samples; for ††RPL554 Emitted (μg) per capsule (B) / Calculated RPL554 Content (μg) per capsule (A): as RPL554 base; for Calculated RPL554 Content (μg) per capsule (A): calculated from delivered blend mass and measured blend content. The data set is classed as physicochemical. In short, it runs like this: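 Capsules held 20 mg of 1% w/w RPL554 free base or salt:lactose blend (200 μg salt, not adjusted for molecular weight). Fired from Cyclohaler at 90 L/min for 2.7 s into NGI with pre-separator, 5 capsules per formulation; drug recovered from device, induction port and stages to derive ED, FPD, FPF.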

The nature of data set [4]: Primary particle size analysis by laser light diffraction (Mastersizer 2000). The conditions noted are these: micronised, mean n=3. It is filed as physicochemical. As for the experimental part: A Mastersizer 2000 fitted with a Scirocco 2000 dry powder dispersion unit (Malvern Instruments Ltd, UK) was used to analyse the primary particle size of the micronised RPL554 and salt variants. The salts (50 mg) were automatically sampled via a vibrating feed control at a feeder rate of 60% and dispersed in compressed air at a pressure of 3 bar.

The nature of data set [5]: Solubility of RPL554 salts in saline solutions, water and aqueous buffer solutions at 25° C. (HPLC). The data set is classed as physicochemical. The following applies: for Solubility as RPL554 (mg/ml) in 0.7 w/w % Saline / Solubility as RPL554 (mg/ml) in 0.9 w/w % Saline / Solubility as RPL554 (mg/ml) in 1.1 w/w % Saline / Solubility as RPL554 (mg/ml) in Water: 24 hours; for Solubility as RPL554 (mg/ml) in Water: deionised water. The method in brief:
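Salts or free base (ca 50 mg) suspended in 1 ml of buffered 0.9% saline (pH 3.5–6.5), 0.7–1.1% saline or deionised water, agitated 24 h at 25° C. Filtrates analysed by HPLC with single-point calibration; solubility expressed as RPL554 free base, not salt.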

The nature of data set [6]: Intrinsic dissolution of compressed tablet, pH 7.0, 37° C. (Sirius inForm). The data set is classed as physicochemical. The conditions noted are these: for Mass of salt (μg) dissolved after 2 hours, Average / Mass of salt (μg) dissolved after 2 hours, Test 1 / Mass of salt (μg) dissolved after 2 hours, Test 2: pH 7.0, 0.15 M NaCl, 37° C. In short, it runs like this:
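Compressed 3 mm tablet (~10 mg, 100 kg load), one face exposed, dissolved in pH 7.0 aqueous medium (0.15 M NaCl, 0.01 M acetate/phosphate buffer) at 37° C., stirred at 100 rpm for 2 h. UV absorbance (<1.3) converted to dissolved weight via pH-dependent molar extinction coefficients.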

The mark [7] stands for this setting: listed as ethane-1,2-disulfonate salt.
Setting [8] is: listed as hydrochloride salt, hydrochloride.

Structures can show the parent of a compound that is named as a salt.

For `COc1cc2c(cc1OC)-c1c/c(=N\c3c(C)cc(C)cc3C)n(CCNC(N)=O)c(=O)n1CC2` [Ethane-1,2-disulfonate, RPL554 ethane-1,2-disulfonate], in data set [1] (listed as Ethane-1,2-disulfonic), the “pH of aqueous suspension/solution” value amounted to 3.72. In data set [2], the “Measured Blend Content (% Theoretical)” value is 80.18 % Theoretical and the “**Adjusted RPL554 Content per capsule” value was 133.73 µg. For the same compound, in data set [3], the “†Measured Mass of 1% w/w Blend Delivered per capsule” value is given as 19.90 mg, the “††RPL554 Emitted (μg) per capsule (B)” value was found to be 87.91 µg and the “Calculated RPL554 Content (μg) per capsule (A)” value is 133.06 µg. For the same compound, in data set [4], the “D (0.1) (μm)” value was found to be 0.52 μm, the “D (0.5) (μm)” value came out at 1.25 μm and the “D (0.9) (μm)” value stood at 2.78 μm. The “Solubility as RPL554 (mg/ml) in 0.7 w/w % Saline” value (from here on “Solubility … in 0.7 w/w % Saline”) in data set [5] worked out at 4.79 mg/mL. Moreover, in data set [6] (setting [7]), the “Mass of salt (μg) dissolved after 2 hours, Average” value (“Mass of salt … Average” for short) was determined as 28.0 µg; the “Mass of salt (μg) dissolved after 2 hours, Test 1” value (shortened to “Mass of salt … Test 1”) stood at 21.1 µg; the “Mass of salt (μg) dissolved after 2 hours, Test 2” value (shortened to “Mass of salt … Test 2”) came to 34.9 µg.

On to `COc1cc2c(cc1OC)-c1c/c(=N\c3c(C)cc(C)cc3C)n(CCNC(N)=O)c(=O)n1CC2` [Hydrochloride, RPL554 hydrochloride], for which, in data set [1] (listed as Hydrochloric anhydrous source, hydrochloride), the “pH of aqueous suspension/solution” value is recorded as 3.68. Moreover, the “pH of aqueous suspension/solution” value in data set [1] (listed as Hydrochloric aqueous source, hydrochloride) was 3.84. Moreover, in data set [2] (hydrochloride), the “Measured Blend Content (% Theoretical)” value is 84.42 % Theoretical and the “**Adjusted RPL554 Content per capsule” value amounted to 156.86 µg. For the same compound, in data set [3] (hydrochloride), the “†Measured Mass of 1% w/w Blend Delivered per capsule” value is 20.14 mg, the “††RPL554 Emitted (μg) per capsule (B)” value was found to be 102.27 µg and the “Calculated RPL554 Content (μg) per capsule (A)” value was 157.96 µg. In addition, in data set [4] (hydrochloride), the “D (0.1) (μm)” value was found to be 0.53 μm, the “D (0.5) (μm)” value is recorded as 1.37 μm and the “D (0.9) (μm)” value worked out at 3.47 μm. Further, in data set [5] (hydrochloride), the “Solubility … in 0.7 w/w % Saline” value is 2.85 mg/mL, the “Solubility as RPL554 (mg/ml) in 0.9 w/w % Saline” value was found to be 1.93 mg/mL, the “Solubility as RPL554 (mg/ml) in 1.1 w/w % Saline” value amounted to 2.48 mg/mL and the “Solubility as RPL554 (mg/ml) in Water” value was found to be 12.66 mg/mL. Also, the solubility at 24 h in data set [5] (phosphate buffer in 0.9% w/w saline, 25 °C, pH 6.5, aqueous buffer, thermodynamic from solid, in saline 0.9% w/w, read-out: Solubility as RPL554 (mg/ml) in buffer solution pH 6.5, Phosphate) worked out at 0.02 mg/mL. Besides, in data set [6] (setting [8]), the “Mass of salt … Average” value came out at 35.6 µg; the “Mass of salt … Test 1” value was 31.7 µg; the “Mass of salt … Test 2” value was 39.4 µg.

In the case of `COc1cc2c(cc1OC)-c1c/c(=N\c3c(C)cc(C)cc3C)n(CCNC(N)=O)c(=O)n1CC2` [Sulfate, RPL554 sulfate], in data set [1] (listed as Sulfuric - aqueous solution), the “pH of aqueous suspension/solution” value turned out to be 1.87. In addition, in data set [2], the “Measured Blend Content (% Theoretical)” value turned out to be 73.50 % Theoretical and the “**Adjusted RPL554 Content per capsule” value came out at 121.95 µg. In data set [3], the “†Measured Mass of 1% w/w Blend Delivered per capsule” value worked out at 19.78 mg, the “††RPL554 Emitted (μg) per capsule (B)” value was found to be 79.35 µg and the “Calculated RPL554 Content (μg) per capsule (A)” value was 120.61 µg. Moreover, in data set [4], the “D (0.1) (μm)” value turned out to be 0.51 μm, the “D (0.5) (μm)” value was found to be 1.12 μm and the “D (0.9) (μm)” value is on record as 2.30 μm. In addition, in data set [5], the “Solubility … in 0.7 w/w % Saline” value turned out to be 2.78 mg/mL, the “Solubility as RPL554 (mg/ml) in 0.9 w/w % Saline” value is 1.94 mg/mL, the “Solubility as RPL554 (mg/ml) in 1.1 w/w % Saline” value was 1.35 mg/mL and the “Solubility as RPL554 (mg/ml) in Water” value worked out at 12.11 mg/mL. The “dissolution compared with free base / other salts” value in data set [6] (2 hour experiments) is recorded as “higher dissolution than the rest of the salts”. For the same compound, the “dissolution behaviour over 24 hours” value in data set [6] (24 hours experiment) is on record as “did start to precipitate slowly but still remained highly supersaturated even after 24 hrs”. For the same compound, the “maximum pH change (decrease) during dissolution” value in data set [6] (nominal start pH 7, listed as sulfate salt) is “about 0.15 pH units”. Besides, in data set [6] (listed as sulfate salt), the “Mass of salt … Average” value stood at 6205 µg; the “Mass of salt … Test 1” value is 5910 µg; the “Mass of salt … Test 2” value turned out to be 6500 µg.

The values are drawn from US11491155B2, “Salt of a pyrimido[6,1-A]isoquinolin-4-one compound” (VERONA PHARMA PLC, priority 2015, dated 2022).
